*1 amine or outer side, *2 acyl side, *3 side chain or, on linkers, in order; H or OH if unused. Where a SMILES comes first, the peptide text is derived from it. Bridges are numbered along the chain shown (N, C = ends). [ ]: non-standard residue; d: D form. ξ: configuration not given here. Trp(1-CH2COOH) = N[C@@H](Cc1cn(CC(=O)O)c2ccccc12)C(=O)O; Phe(3,4,5-F3) = N[C@@H](Cc1cc(F)c(F)c(F)c1)C(=O)O; Phe(3,4-Cl2) = N[C@@H](Cc1ccc(Cl)c(Cl)c1)C(=O)O; NMeAla(4-thiazolyl) = CN[C@@H](Cc1cscn1)C(=O)O; NMePhe(4-F) = CN[C@@H](Cc1ccc(F)cc1)C(=O)O; Phe(4-F) = N[C@@H](Cc1ccc(F)cc1)C(=O)O; d(cisHyp) = O=C(O)[C@H]1C[C@@H](O)CN1; NMeY = CN[C@@H](Cc1ccc(O)cc1)C(=O)O; NMeIle(3ξ) = CCC(C)[C@H](NC)C(=O)O; Hyp = O=C(O)[C@@H]1C[C@@H](O)CN1; NMeF = CN[C@@H](Cc1ccccc1)C(=O)O; X1 = O=C([C@H]1COCCN1[*:1])[*:2]; NMehSer = CN[C@@H](CCO)C(=O)O; Thr(3ξ) = CC(O)[C@H](N)C(=O)O; NMeNle = CCCC[C@H](NC)C(=O)O; dPip = O=C(O)[C@H]1CCCCN1; hSer = N[C@@H](CCO)C(=O)O; NMeA = CN[C@@H](C)C(=O)O; Orn = NCCC[C@H](N)C(=O)O; dNMeA = CN[C@H](C)C(=O)O; Dab = NCC[C@H](N)C(=O)O; Dap = NC[C@H](N)C(=O)O; ξC = NC(CS)C(=O)O; Sar = CNCC(=O)O
These compounds were tested against T1, Human PD-L1/PD-1 (Homo sapiens, UniProt Q9NZQ7) (assay: HTRF Human PD-L1/PD-1 binding assay (PD-1-Ig/PD-L1-His)). Details: PD-L1-His 10 nM, PD-1-Ig 20 nM; class symbol; read-out: HTRF Human PD-L1/PD-1 Binding Assay IC50 Range.
T1 construct: TVMV protease cleavage site (C); made in house; host or cells: HEK293T cells
T1 sequence (Q9NZQ7 with tags, fused parts or gaps): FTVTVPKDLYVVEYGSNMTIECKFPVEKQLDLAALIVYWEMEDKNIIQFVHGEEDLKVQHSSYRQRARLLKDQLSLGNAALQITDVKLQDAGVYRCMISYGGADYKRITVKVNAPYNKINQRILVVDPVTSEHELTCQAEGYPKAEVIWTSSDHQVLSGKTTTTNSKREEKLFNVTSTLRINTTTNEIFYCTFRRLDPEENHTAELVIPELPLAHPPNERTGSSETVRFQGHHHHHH
Method in brief: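 Competition of macrocyclic peptides for PD-1/PD-L1 binding measured by HTRF in dPBS containing 0.1% BSA and 0.05% Tween-20. Compound and PD-L1-His (10 nM final) incubated 15 min before PD-1-Ig (20 nM final) and a further 15 min.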

IC50 [nM] | SMILES
100 to 990 | CCCC[C@H]1C(=O)N2CCC[C@@H]2C(=O)N[C@@H](CC(=O)O)C(=O)N[C@@H](C(C)C)C(=O)N(C)[C@@H](CCOC)C(=O)N[C@@H](Cc2ccc(O)cc2)C(=O)N2CCC[C@@H]2C(=O)N[C@@H](Cc2c[nH]c3ccccc23)C(=O)N[C@@H](Cc2ccc(O)cc2)C(=O)N[C@@H](CC(C)C)C(=O)N[C@H](C(=O)NCC(N)=O)CSCC(=O)N[C@@H](Cc2ccc(F)cc2)C(=O)N(C)[C@@H](Cc2ccccc2)C(=O)N1C [Example 9219] ({CH2CO}-[Phe(4-F)][NMeF][NMeNle][dP]DV[NMehSer](Me)Y[dP]WYLCG-NH2; thioether N-13)
1 to 9.9 | CCCC[C@H]1C(=O)N2CCC[C@@H]2C(=O)N[C@@H](CC(=O)O)C(=O)N[C@@H](C(C)C)C(=O)N(C)[C@@H](Cc2ccccc2)C(=O)N[C@@H](CC(=O)O)C(=O)N2CCCC[C@@H]2C(=O)N[C@@H](Cc2c[nH]c3ccccc23)C(=O)N[C@@H](Cc2ccc(O)cc2)C(=O)N[C@@H](CN)C(=O)N[C@H](C(=O)NCC(N)=O)CSCC(=O)N[C@@H](Cc2cc(F)c(F)c(F)c2)C(=O)N(C)[C@@H](Cc2ccc(F)cc2)C(=O)N1C [Example 10572] ({CH2CO}-[Phe(3,4,5-F3)][NMePhe(4-F)][NMeNle][dP]DV[NMeF]D[dPip]WY[Dap]CG-NH2; thioether N-13)
1 to 9.9 | CCCC[C@H]1C(=O)N(C)[C@@H](CCCC)C(=O)N[C@@H](CCC(=O)O)C(=O)N[C@H](C(=O)NCC(N)=O)CSCC(=O)N[C@@H](Cc2ccc(O)cc2)C(=O)N(C)[C@@H](C)C(=O)N[C@@H](CC(N)=O)C(=O)N2CCC[C@H]2C(=O)N[C@@H](CO)C(=O)N[C@@H](CCC(N)=O)C(=O)N2C[C@H](O)C[C@H]2C(=O)N[C@@H](Cc2c[nH]c3ccccc23)C(=O)N[C@@H](CCC(=O)O)C(=O)N[C@@H](Cc2c[nH]c3ccccc23)C(=O)N1C [Example 5240] ({CH2CO}-Y[NMeA]NPSQ[Hyp]WEW[NMeNle][NMeNle]ECG-NH2; thioether N-14)
10 to 99.9 | CCCC[C@H]1C(=O)N(C)CC(=O)N[C@@H](CC(N)=O)C(=O)N[C@@H](C(C)C)C(=O)N(C)[C@@H](Cc2ccccc2)C(=O)N[C@@H](Cc2ccc(O)cc2)C(=O)N(C)CC(=O)N[C@@H](Cc2c[nH]c3ccccc23)C(=O)N[C@@H](Cc2ccc(O)cc2)C(=O)N[C@@H](CCCN)C(=O)N[C@H](C(=O)NCC(N)=O)CSCC(=O)N[C@@H](Cc2ccccc2)C(=O)N(C)[C@@H](Cc2cscn2)C(=O)N1C [Example 3616] ({CH2CO}-F[NMeAla(4-thiazolyl)][NMeNle][Sar]NV[NMeF]Y[Sar]WY[Orn]CG-NH2; thioether N-13)
1 to 9.9 | CCCC[C@H]1C(=O)N(C)[C@@H](CCCC)C(=O)N[C@@H](CCC(=O)O)C(=O)NC(C(=O)NCC(N)=O)CSCC(=O)N[C@@H](Cc2ccc(O)cc2)C(=O)N(C)[C@@H](C)C(=O)N[C@@H](CC(N)=O)C(=O)N2CCC[C@H]2C(=O)N[C@@H](CC(N)=O)C(=O)N[C@@H](CC(C)C)C(=O)N2C[C@H](O)C[C@H]2C(=O)N[C@@H](Cc2c[nH]c3ccccc23)C(=O)N[C@@H](CO)C(=O)N[C@@H](Cc2c[nH]c3ccccc23)C(=O)N1C (stereo partly drawn) [Example 9169] ({CH2CO}-Y[NMeA]NPNL[Hyp]WSW[NMeNle][NMeNle]E[ξC]G-NH2; thioether N-14)
1 to 9.9 | CCCC[C@H]1C(=O)N2C[C@H](O)C[C@@H]2C(=O)N[C@@H](CC(=O)O)C(=O)N[C@@H](C(C)C)C(=O)N(C)[C@@H](Cc2ccccc2)C(=O)N[C@@H](CCC(=O)O)C(=O)N2CCC[C@@H]2C(=O)N[C@@H](Cc2c[nH]c3ccccc23)C(=O)N[C@@H](Cc2ccc(O)cc2)C(=O)N[C@@H](CCO)C(=O)N[C@H](C(=O)NCC(N)=O)CSCC(=O)N[C@@H](Cc2cc(F)c(F)c(F)c2)C(=O)N(C)[C@@H](Cc2ccccc2)C(=O)N1C [Example 10154] ({CH2CO}-[Phe(3,4,5-F3)][NMeF][NMeNle][d(cisHyp)]DV[NMeF]E[dP]WY[hSer]CG-NH2; thioether N-13)
1 to 9.9 | CCCC[C@H]1C(=O)N(C)[C@@H](CCCC)C(=O)N[C@@H](C(C)O)C(=O)N[C@H](C(=O)NCC(N)=O)CSCC(=O)N[C@@H](Cc2ccc(OC)cc2)C(=O)N(C)[C@@H](C)C(=O)N[C@@H](CC(N)=O)C(=O)N2CCC[C@H]2C(=O)N[C@@H](Cc2c[nH]cn2)C(=O)N[C@@H](CCC(N)=O)C(=O)N2C[C@H](O)C[C@H]2C(=O)N[C@@H](Cc2c[nH]c3ccccc23)C(=O)N[C@@H](CO)C(=O)N[C@@H](Cc2cn(CC(=O)O)c3ccccc23)C(=O)N1C (stereo partly drawn) [Example 7145] ({CH2CO}-Y(Me)[NMeA]NPHQ[Hyp]WS[Trp(1-CH2COOH)][NMeNle][NMeNle][Thr(3ξ)]CG-NH2; thioether N-14)
1 to 9.9 | CC(C)C[C@@H]1NC(=O)[C@H](Cc2ccc(O)cc2)NC(=O)[C@H](Cc2c[nH]c3ccccc23)NC(=O)[C@@H](C)N(C)C(=O)[C@H](Cc2ccc(O)cc2)NC(=O)[C@H](Cc2ccccc2)N(C)C(=O)[C@H](C(C)C)NC(=O)[C@H](CCC(=O)O)NC(=O)[C@@H](C)N(C)C(=O)[C@H](C)N(C)C(=O)[C@H](Cc2ccccc2)N(C)C(=O)[C@H](Cc2cc(F)c(F)c(F)c2)NC(=O)CSC[C@@H](C(=O)NCC(N)=O)NC1=O [Example 9189] ({CH2CO}-[Phe(3,4,5-F3)][NMeF][NMeA][dNMeA]EV[NMeF]Y[dNMeA]WYLCG-NH2; thioether N-13)

The next lines start with the compound.

SMILES | IC50 [nM]
CCCC[C@H]1C(=O)N[C@@H](CCC(N)=O)C(=O)N2CCCC[C@@H]2C(=O)N[C@@H](Cc2c[nH]c3ccccc23)C(=O)N[C@@H](Cc2ccc(O)cc2)C(=O)N[C@@H](CC(C)C)C(=O)N[C@H](C(=O)NCC(N)=O)CSCC(=O)N[C@@H](Cc2ccc(F)cc2)C(=O)N(C)[C@@H](Cc2ccccc2)C(=O)N(C)[C@@H](CCCC)C(=O)N2CCC[C@@H]2C(=O)N[C@@H](CC(=O)O)C(=O)N[C@@H](C(C)C)C(=O)N1C [Example 9216] ({CH2CO}-[Phe(4-F)][NMeF][NMeNle][dP]DV[NMeNle]Q[dPip]WYLCG-NH2; thioether N-13) | 10 to 99.9
CCCC[C@H]1C(=O)N(C)[C@@H](CCCC)C(=O)N[C@@H](CC(C)C)C(=O)N[C@H](C(=O)NCC(N)=O)CSCC(=O)N[C@@H](Cc2ccc(O)cc2)C(=O)N(C)[C@@H](C)C(=O)N[C@@H](CC(N)=O)C(=O)N2CCC[C@H]2C(=O)N[C@@H](CN)C(=O)N[C@@H](CCC(N)=O)C(=O)N2C[C@H](O)C[C@H]2C(=O)N[C@@H](Cc2c[nH]c3ccccc23)C(=O)N[C@@H](CCN)C(=O)N[C@@H](Cc2cn(CC(=O)O)c3ccccc23)C(=O)N1C [Example 5259] ({CH2CO}-Y[NMeA]NP[Dap]Q[Hyp]W[Dab][Trp(1-CH2COOH)][NMeNle][NMeNle]LCG-NH2; thioether N-14) | 1 to 9.9
CCCC[C@H]1C(=O)N2CCC[C@@H]2C(=O)N[C@@H](CC(=O)O)C(=O)N[C@@H](C(C)C)C(=O)N(C)[C@@H](Cc2ccccc2)C(=O)N[C@@H](CCC(=O)O)C(=O)N2CCCC[C@@H]2C(=O)N[C@@H](Cc2c[nH]c3ccccc23)C(=O)N[C@@H](Cc2ccc(O)cc2)C(=O)N[C@@H](CCCN)C(=O)N[C@H](C(=O)NCC(N)=O)CSCC(=O)N[C@@H](Cc2cc(F)c(F)c(F)c2)C(=O)N(C)[C@@H](Cc2ccc(O)cc2)C(=O)N1C [Example 10601] ({CH2CO}-[Phe(3,4,5-F3)][NMeY][NMeNle][dP]DV[NMeF]E[dPip]WY[Orn]CG-NH2; thioether N-13) | 1 to 9.9
CCCC[C@H]1C(=O)N(C)CC(=O)N[C@@H](CC(=O)O)C(=O)N[C@@H](C(C)C)C(=O)N(C)[C@@H](Cc2ccccc2)C(=O)N[C@@H](Cc2ccc(O)cc2)C(=O)N(C)CC(=O)N[C@@H](Cc2c[nH]c3ccccc23)C(=O)N[C@@H](Cc2ccc(O)cc2)C(=O)N[C@@H](CC(C)C)C(=O)N[C@H](C(=O)NCC(N)=O)CSCC(=O)N[C@@H](Cc2ccc(Cl)c(Cl)c2)C(=O)N(C)[C@@H](Cc2ccccc2)C(=O)N1C [Example 3246] ({CH2CO}-[Phe(3,4-Cl2)][NMeF][NMeNle][Sar]DV[NMeF]Y[Sar]WYLCG-NH2; thioether N-13) | 10 to 99.9
CCCC[C@H]1C(=O)N2C[C@H](O)C[C@@H]2C(=O)N[C@@H](CC(=O)O)C(=O)N[C@@H](C(C)C)C(=O)N(C)[C@@H](Cc2ccccc2)C(=O)N[C@@H](CCC(=O)O)C(=O)N2CCOC[C@@H]2C(=O)N[C@@H](Cc2c[nH]c3ccccc23)C(=O)N[C@@H](Cc2ccc(O)cc2)C(=O)N[C@@H](CCO)C(=O)N[C@H](C(=O)NCC(N)=O)CSCC(=O)N[C@@H](Cc2cc(F)c(F)c(F)c2)C(=O)N(C)[C@@H](Cc2ccccc2)C(=O)N1C [Example 10156] ({CH2CO}-[Phe(3,4,5-F3)][NMeF][NMeNle][d(cisHyp)]DV[NMeF]E[X1]WY[hSer]CG-NH2; thioether N-13) | 1 to 9.9
CCCC[C@H]1C(=O)N(C)CC(=O)N[C@@H](CC(N)=O)C(=O)N[C@@H](C(C)C)C(=O)N(C)[C@@H](Cc2ccccc2)C(=O)N[C@@H](Cc2ccc(O)cc2)C(=O)N(C)CC(=O)N[C@@H](Cc2c[nH]c3ccccc23)C(=O)N[C@@H](Cc2ccc(O)cc2)C(=O)N[C@@H](CC(C)C)C(=O)N[C@H](C(=O)NCC(N)=O)CSCC(=O)N[C@@H](Cc2ccccc2)C(=O)N(C)[C@@H](Cc2ccccc2)C(=O)N1C [Example 3237] ({CH2CO}-F[NMeF][NMeNle][Sar]NV[NMeF]Y[Sar]WYLCG-NH2; thioether N-13) | 10 to 99.9

Same assay, conditions: PD-L1-His 10 nM, PD-1-Ig 20 nM; read-out: HTRF Human PD-L1/PD-1 Binding Assay IC50

IC50 [nM] | SMILES
7280 | CCCC[C@H]1C(=O)N2CCC[C@@H]2C(=O)N[C@@H](CC(=O)O)C(=O)N[C@@H](C(C)C)C(=O)N(C)[C@@H](C(C)CC)C(=O)N[C@@H](Cc2ccc(O)cc2)C(=O)N2CCCC[C@@H]2C(=O)N[C@@H](Cc2c[nH]c3ccccc23)C(=O)N[C@@H](Cc2ccc(O)cc2)C(=O)N[C@@H](CC(C)C)C(=O)N[C@H](C(=O)NCC(N)=O)CSCC(=O)N[C@@H](Cc2ccc(F)cc2)C(=O)N(C)[C@@H](Cc2ccccc2)C(=O)N1C (stereo partly drawn) [Example 9258] ({CH2CO}-[Phe(4-F)][NMeF][NMeNle][dP]DV[NMeIle(3ξ)]Y[dPip]WYLCG-NH2; thioether N-13)

— patent US10538555B2, “Macrocyclic inhibitors of the PD-1/PD-L1 and CD80(B7-1)/PD-L1 protein/protein interactions” (BRISTOL-MYERS SQUIBB COMPANY, priority 2014, dated 2020)
